The assay concerns HBsAg. As to the kind of experiment: HBsAg assay (CLIA) in HepG2.2.15 cells. The class given is cell-based, HBV. Here is the method: HepG2.2.15 cells (Acs et al. Proc Natl Acad Sci USA, 84, (1987), 4641-4), a constitutively HBV-expressing cell line were cultured in DMEM+Glutamax-I medium (Invitrogen, Carlsbad, Calif., USA), supplemented with 10% fetal bovine serum (Invitrogen) and G418 (Invitrogen) at a final concentration of 200 mg/L and maintained in 5% CO2 at 37° C.
HepG2.2.15 cells were seeded in duplicate into white, 96-well plates at 1.5×10^4 cells/well. The cells were treated with a three-fold serial dilution series of the compounds in DMSO. The final DMSO concentration in all wells was 1% and DMSO was used as no drug control.
The HBsAg chemiluminescence immunoassay (CLIA) kit (Autobio Diagnostics Co., Zhengzhou, China, Catalog number: CL0310-2) was used to measure the levels of secreted HBV antigens semi-quantitatively. For the detection 50 μL/well culture supernatant was used and HBsAg was quantified using HBsAg chemiluminescence immunoassay (CLIA) kit (Autobio Diagnostics Co., Zhengzhou, China, Catalog number: CL0310-2), 50 μL of the supernatant was transferred to the CLIA assay plate and 50 μL of enzyme conjugate reagent was added into each well. The plates were sealed and gently agitated for 1 hour at room temperature. The supernatant-enzyme-mixture was discarded and wells were washed 6 times with 300 μL of PBS. The residual liquid was removed by plating the CLIA plate […] on absorbent tissue paper. 25 μL of substrates A and B were added to each well. Luminance was measured using a luminometer (Mithras LB 940 Multimode Microplate Reader) after 10 minutes incubation. Dose-response curves were generated and the IC50 value was extrapolated by using the E-WorkBook Suite (ID Business Solutions Ltd., Guildford, UK). The IC50 was defined as the compound concentration (or conditioned media log dilution) at which HBsAg secretion was reduced by 50% compared to the no drug control.
The compounds according to formula I were tested for their capacity to inhibit HBsAg as described herein.

[1] abbreviates: Hepatitis B virus, HepG2.2.15, read-out: IC50 (HBsAg assay).

Read-outs that look alike come from different tables or passages of the source.

For orientation: IC50 means the concentration that inhibits the measured activity by half. `CS(=O)(=O)c1ccc(N2CCc3nc(-c4ccc(F)cn4)ncc3C2)cc1` [Example 2, 2-(5-fluoro-2-pyridyl)-6-(4-methylsulfonylphenyl)-7,8-dihydro-5H-pyrido[4,3-d]pyrimidine]: the IC50 under setting [1] worked out at 10.2 µM.
Take `COCCOc1cc(N2CCc3nc(-c4ccccn4)ncc3C2)cc(F)c1F` [Example 23, 6-[3,4-difluoro-5-(2-methoxyethoxy)phenyl]-2-(2-pyridyl)-7,8-dihydro-5H-pyrido[4,3-d]pyrimidine]: the IC50 under setting [1] was found to be 0.549 µM.
As to `Fc1cc(Br)cc(N2CCc3nc(-c4ncccn4)ncc3C2)c1` [Example 41, 6-(3-bromo-5-fluoro-phenyl)-2-pyrimidin-2-yl-7,8-dihydro-5H-pyrido[4,3-d]pyrimidine], the IC50 under setting [1] came to 0.5 µM.
For the molecule `COC(=O)c1ccc(N2CCc3nc(-c4ccccn4)ncc3C2)cc1F` [Example 15, methyl 2-fluoro-4-[2-(2-pyridyl)-7,8-dihydro-5H-pyrido[4,3-d]pyrimidin-6-yl]benzoate], under setting [1], the IC50 is 9.23 µM.
`CCOc1cc(N2CCc3nc(-c4ccccn4)ncc3C2)ccc1C(=O)O` [Example 66, 2-ethoxy-4-[2-(2-pyridyl)-7,8-dihydro-5H-pyrido[4,3-d]pyrimidin-6-yl]benzoic acid]: under setting [1], the IC50 was 13.2 µM.
On to `COc1cc(N2CCc3cc(-c4ncccn4)ncc3C2)cc(F)c1F` [Example 95, 2-(3,4-difluoro-5-methoxy-phenyl)-6-pyrimidin-2-yl-3,4-dihydro-1H-2,7-naphthyridine], for which the IC50 under setting [1] is 0.061 µM.
`CCCc1nc(-c2ccccn2)nc2c1CN(c1ccc(S(C)(=O)=O)cc1)CC2` [Example 85]: under setting [1], the IC50 was 8.29 µM.
On to `CNc1nc(-c2ccccn2)nc2c1CN(c1ccc(S(C)(=O)=O)cc1)CC2` [Example 88], for which, under setting [1], the half-inhibitory concentration (IC50) stood at 26.4 µM.
On the same count and under the same terms, in the case of `COc1cc(N2CCc3nc(-c4ncccn4)ncc3C2)cc(Cl)c1F` [Example 79, 6-(3-chloro-4-fluoro-5-methoxy-phenyl)-2-pyrimidin-2-yl-7,8-dihydro-5H-pyrido[4,3-d]pyrimidine] it was 0.288 µM.
For `COc1cc(N2CCc3nc(-c4ncccn4)ncc3C2)cc(F)c1Cl` [Example 78, 6-(4-chloro-3-fluoro-5-methoxy-phenyl)-2-pyrimidin-2-yl-7,8-dihydro-5H-pyrido[4,3-d]pyrimidine], the IC50 under setting [1] is 19.1 µM.
`COc1ccc(-c2ncc3c(n2)CCN(c2ccc(S(C)(=O)=O)cc2)C3)nc1` [Example 5, 2-(5-methoxy-2-pyridyl)-6-(4-methylsulfonylphenyl)-7,8-dihydro-5H-pyrido[4,3-d]pyrimidine]: under setting [1], the IC50 came to 42.1 µM.
`CCOc1cc(N2CCc3nc(-c4ccccn4)ncc3C2)cc(F)c1F` [Example 21, 6-(3-ethoxy-4,5-difluoro-phenyl)-2-(2-pyridyl)-7,8-dihydro-5H-pyrido[4,3-d]pyrimidine]: the IC50 under setting [1] stood at 0.321 µM.
As for `COCCCNC(=O)c1cc(F)cc(N2CCc3nc(-c4ncccn4)ncc3C2)c1` [Example 106, 3-fluoro-N-(3-methoxypropyl)-5-(2-pyrimidin-2-yl-7,8-dihydro-5H-pyrido[4,3-d]pyrimidin-6-yl)benzamide], under setting [1], the IC50 was 1.34 µM.
For `COc1cc(N2CCc3cc(-c4ccccn4)ncc3C2)cc(F)c1F` [Example 96, 2-(3,4-difluoro-5-methoxy-phenyl)-6-(2-pyridyl)-3,4-dihydro-1H-2,7-naphthyridine], the IC50 under setting [1] turned out to be 0.162 µM.
`CCCCOc1cc(N2CCc3nc(-c4ccccn4)ncc3C2)ccc1C(=O)O` [Example 67, 2-butoxy-4-[2-(2-pyridyl)-7,8-dihydro-5H-pyrido[4,3-d]pyrimidin-6-yl]benzoic acid]: the concentration for half-maximal inhibition (IC50) under setting [1] is 7.79 µM.
For `COc1cc(F)cc(N2CCc3nc(-c4ncccn4)ncc3C2)n1` [Example 111, 6-(4-fluoro-6-methoxy-2-pyridyl)-2-pyrimidin-2-yl-7,8-dihydro-5H-pyrido[4,3-d]pyrimidine], the half-maximal inhibitory concentration (IC50) under setting [1] amounted to 0.362 µM.
In the case of `COc1ccnc(-c2ncc3c(n2)CCN(c2cc(F)c(F)c(OC)c2)C3)c1` [Example 24, 6-(3,4-difluoro-5-methoxy-phenyl)-2-(4-methoxy-2-pyridyl)-7,8-dihydro-5H-pyrido[4,3-d]pyrimidine], the IC50 under setting [1] was 1.86 µM.
For `Fc1ccc(N2CCc3nc(-c4ccccn4)ncc3C2)c(F)c1` [Example 14, 6-(2,4-difluorophenyl)-2-(2-pyridyl)-7,8-dihydro-5H-pyrido[4,3-d]pyrimidine], under setting [1], the IC50 came out at 9.51 µM.
Turning to `Cc1ccc(-c2ncc3c(n2)CCN(c2ccc(S(C)(=O)=O)cc2)C3)nc1` [Example 3, 2-(5-methyl-2-pyridyl)-6-(4-methylsulfonylphenyl)-7,8-dihydro-5H-pyrido[4,3-d]pyrimidine], under setting [1], the half-maximal inhibitory concentration (IC50) worked out at 9.22 µM.
Take `O=S(=O)(c1ccc(N2CCc3nc(-c4ccccn4)ncc3C2)cc1)C(F)(F)F` [Example 12, 2-(2-pyridyl)-6-[4-(trifluoromethylsulfonyl)phenyl]-7,8-dihydro-5H-pyrido[4,3-d]pyrimidine]: the half-maximal inhibitory concentration (IC50) under setting [1] stood at 13.3 µM.
`COc1ncc(Cl)c(N2CCc3nc(-c4ccccn4)ncc3C2)n1` [Example 69, 6-(5-chloro-2-methoxy-pyrimidin-4-yl)-2-(2-pyridyl)-7,8-dihydro-5H-pyrido[4,3-d]pyrimidine]: the IC50 under setting [1] came out at 0.999 µM.
The same measure, in the same setting: next, `COc1cc(N2CCc3nc(-c4ccccn4)ncc3C2)ccc1C(=O)O` [Example 65, 2-methoxy-4-[2-(2-pyridyl)-7,8-dihydro-5H-pyrido[4,3-d]pyrimidin-6-yl]benzoic acid]: 18.4 µM.
In the case of `COc1cc(N2CCc3nc(-c4ncccn4)ncc3C2)cc(F)n1` [Example 112, 6-(2-fluoro-6-methoxy-4-pyridyl)-2-pyrimidin-2-yl-7,8-dihydro-5H-pyrido[4,3-d]pyrimidine], under setting [1], the IC50 was 0.553 µM.
On to `COCCCOc1ccc(N2CCc3nc(-c4ccccn4)ncc3C2)cc1F` [Example 56, 6-[3-fluoro-4-(3-methoxypropoxy)phenyl]-2-(2-pyridyl)-7,8-dihydro-5H-pyrido[4,3-d]pyrimidine], for which, under setting [1], the half-maximal inhibitory concentration (IC50) is 1.84 µM.
`COc1cc([N+](=O)[O-])ccc1N1CCc2nc(-c3ccccn3)ncc2C1` [Example 34, 6-(2-methoxy-4-nitro-phenyl)-2-(2-pyridyl)-7,8-dihydro-5H-pyrido[4,3-d]pyrimidine]: the concentration for half-maximal inhibition (IC50) under setting [1] came to 0.874 µM.
Still for that read-out and setting: next, `COc1cc(F)cc(N2CCc3nc(-c4ccccn4)ncc3C2)c1` [Example 91, 6-(3-fluoro-5-methoxy-phenyl)-2-(2-pyridyl)-7,8-dihydro-5H-pyrido[4,3-d]pyrimidine]: 0.198 µM; `Fc1cc(F)nc(N2CCc3nc(-c4ncccn4)ncc3C2)c1` [Example 110, 6-(4,6-difluoro-2-pyridyl)-2-pyrimidin-2-yl-7,8-dihydro-5H-pyrido[4,3-d]pyrimidine]: 1.44 µM.
For the molecule `COc1ccc(N2CCc3nc(-c4ccccn4)ncc3C2)cc1` [Example 50, 6-(4-methoxyphenyl)-2-(2-pyridyl)-7,8-dihydro-5H-pyrido[4,3-d]pyrimidine], the 50% inhibitory concentration (IC50) under setting [1] came out at 21.9 µM.
The same measure, in the same setting: in the case of `CS(=O)(=O)c1ccc(N2CCc3nc(-c4ccc(Cl)cn4)ncc3C2)cc1` [Example 6, 2-(5-chloro-2-pyridyl)-6-(4-methylsulfonylphenyl)-7,8-dihydro-5H-pyrido[4,3-d]pyrimidine] it was 18.8 µM.
Same read-out and setting: next, `OCCCOc1cc(N2CCc3nc(-c4ccccn4)ncc3C2)cc(F)c1F` [Example 93, 3-[2,3-difluoro-5-[2-(2-pyridyl)-7,8-dihydro-5H-pyrido[4,3-d]pyrimidin-6-yl]phenoxy]propan-1-ol]: 0.314 µM; `O=C(NCCCCCO)c1cc(F)cc(N2CCc3nc(-c4ncccn4)ncc3C2)c1` [Example 107, 3-fluoro-N-(5-hydroxypentyl)-5-(2-pyrimidin-2-yl-7,8-dihydro-5H-pyrido[4,3-d]pyrimidin-6-yl)benzamide]: 7.12 µM; `Cc1ccc(N2CCc3nc(-c4ccccn4)ncc3C2)cc1` [Example 47, 6-(p-tolyl)-2-(2-pyridyl)-7,8-dihydro-5H-pyrido[4,3-d]pyrimidine]: 11.4 µM.
For the molecule `COc1ccc(N2CCc3nc(-c4ccccn4)ncc3C2)cc1OC` [Example 59, 6-(3,4-dimethoxyphenyl)-2-(2-pyridyl)-7,8-dihydro-5H-pyrido[4,3-d]pyrimidine], the half-maximal inhibitory concentration (IC50) under setting [1] was found to be 9.06 µM.
For `CC1CN(c2ccc([N+](=O)[O-])cc2)Cc2cnc(-c3ccccn3)nc21` (stereo not drawn) [Example 48, 8-methyl-6-(4-nitrophenyl)-2-(2-pyridyl)-7,8-dihydro-5H-pyrido[4,3-d]pyrimidine], the half-inhibitory concentration (IC50) under setting [1] was 1.38 µM.
Consider `Fc1ccc(N2CCc3nc(-c4ccccn4)ncc3C2)cc1F` [Example 10, 6-(3,4-difluorophenyl)-2-(2-pyridyl)-7,8-dihydro-5H-pyrido[4,3-d]pyrimidine], for which, under setting [1], the half-inhibitory concentration (IC50) turned out to be 2.69 µM.
Consider “2,3-difluoro-5-[2-(2-pyridyl)-7,8-dihydro-5H-pyrido[4,3-d]pyrimidin-6-yl]phenol [Example 18]”, for which, where the note is “HepG2.2.15 cells, secreted HBsAg, CLIA, read-out: IC50 (HBsAg assay)”, the IC50 was 22 µM.

The values are drawn from patent publication US10196391B2 (Hoffmann-La Roche Inc., priority 2014, dated 2019).
